Each structure is given as a SMILES string. Converted amounts (≈) assume the structure as drawn.

For test [1], the system named is Candida albicans. As to the kind of experiment: Antifungal activity against Candida albicans PTCC 5027 after 24 to 48 hrs by agar dilution method. The format is functional.
Test [2] relates to Saccharomyces cerevisiae. The test can be described thus: Antifungal activity against Saccharomyces cerevisiae PTCC 5177 after 24 to 48 hrs by agar dilution method. The format is functional.
Test [3] has as its system Aspergillus niger. The test can be described thus: Antifungal activity against Aspergillus niger PTCC 5012 after 72 hrs by agar dilution method. The format is functional. As to conditions: PTCC 5012, 72 h.
Test [4] concerns Nannizzia gypsea. As to the kind of experiment: Antifungal activity against Microsporum gypseum PTCC 5070 after 168 hrs by agar dilution method. As to conditions: PTCC 5070, 168 h. It counts as functional.
For test [5], the system named is Aspergillus niger. As to the kind of experiment: Antifungal activity against Aspergillus niger. It counts as functional.
Test [6] has as its system Nannizzia gypsea. As to the kind of experiment: Antifungal activity against Microsporum gypseum. The format is functional.
The test system of test [7] is Aspergillus niger. As to the kind of experiment: Ratio of fluconazole MIC to compound MIC for Aspergillus niger. The format is functional.
Test [8] concerns Nannizzia gypsea. The test can be described thus: Ratio of fluconazole MIC to compound MIC for Microsporum gypseum. It counts as functional.
The subject of test [9] is Staphylococcus aureus. As to the kind of experiment: Antibacterial activity against Staphylococcus aureus. It counts as functional.
The target of the next test is Acetylcholinesterase (Homo sapiens, UniProt P22303). As to the kind of experiment: Inhibition of AChE (unknown origin).
Sequence of Acetylcholinesterase (P22303 whole entry): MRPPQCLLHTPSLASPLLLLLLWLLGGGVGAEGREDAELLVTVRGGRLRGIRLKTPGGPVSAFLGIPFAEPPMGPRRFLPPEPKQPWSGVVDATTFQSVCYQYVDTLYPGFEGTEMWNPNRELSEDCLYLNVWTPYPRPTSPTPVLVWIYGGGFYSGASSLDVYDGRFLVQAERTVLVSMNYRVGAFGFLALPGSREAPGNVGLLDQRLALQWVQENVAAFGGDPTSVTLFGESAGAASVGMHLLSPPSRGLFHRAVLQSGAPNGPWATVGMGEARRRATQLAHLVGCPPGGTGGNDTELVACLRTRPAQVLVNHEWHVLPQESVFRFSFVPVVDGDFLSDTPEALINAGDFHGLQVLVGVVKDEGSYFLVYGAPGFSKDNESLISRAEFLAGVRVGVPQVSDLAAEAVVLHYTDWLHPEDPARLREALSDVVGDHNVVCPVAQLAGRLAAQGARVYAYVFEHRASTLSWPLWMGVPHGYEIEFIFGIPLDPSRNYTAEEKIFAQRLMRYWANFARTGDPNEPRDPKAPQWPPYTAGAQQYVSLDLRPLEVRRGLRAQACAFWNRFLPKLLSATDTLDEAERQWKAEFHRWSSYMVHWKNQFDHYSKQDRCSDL
Test [10] concerns Candida albicans. The test can be described thus: Antifungal activity against Candida albicans. The format is functional.
For test [11], the system named is Saccharomyces cerevisiae. The test can be described thus: Antifungal activity against Saccharomyces cerevisiae. It counts as functional.
The test system of test [12] is Candida albicans. As to the kind of experiment: Ratio of fluconazole MIC to compound MIC for Candida albicans. It counts as functional.
Test [13] has as its system Saccharomyces cerevisiae. As to the kind of experiment: Ratio of fluconazole MIC to compound MIC for Saccharomyces cerevisiae. It counts as functional.
In another test the test system is MCF7. The test can be described thus: Cytotoxicity against human MCF7 cells after 72 hrs by MTT assay. It counts as functional, cell-based. To be noted: MCF7, 72 h.
For another test, the system named is T47D. As to the kind of experiment: Cytotoxicity against human T47D cells after 72 hrs by MTT assay. The format is functional, cell-based.
Test [14] relates to MDA-MB-231. As to the kind of experiment: Cytotoxicity against human MDA-MB-231 cells after 72 hrs by MTT assay. It counts as functional, cell-based. As to conditions: MDA-MB-231, 72 h.
Test [15] has as its system Staphylococcus aureus. As to the kind of experiment: Antibacterial activity against methicillin-resistant Staphylococcus aureus 252. It counts as functional.
A further test relates to HUVEC. The test can be described thus: Cytotoxicity against HUVEC by MTT assay. The format is functional, cell-based. As to conditions: Homo sapiens.
The next test has as its system Mycolicibacterium phlei. The test can be described thus: Antimycobacterial activity against Mycobacterium phlei. It counts as functional.
The test system of a further test is Mycolicibacterium aurum. The test can be described thus: Antimycobacterial activity against Mycobacterium aurum. It counts as functional.
Test [16] has as its system Mycolicibacterium fortuitum. As to the kind of experiment: Antimycobacterial activity against Mycobacterium fortuitum. The format is functional.
The subject of test [17] is Mycolicibacterium smegmatis. As to the kind of experiment: Antimycobacterial activity against Mycobacterium smegmatis. It counts as functional.
The subject of test [18] is MDA-MB-231. The test can be described thus: Cytotoxicity against human MDA-MB-231 cells by MTT assay. The format is functional, cell-based.
A further test has as its system KB. As to the kind of experiment: Cytotoxicity against human KB cells by MTT assay. It counts as functional, cell-based.
Test [19] has as its system SK-N-MC. The test can be described thus: Cytotoxicity against human SK-N-MC cells by MTT assay. The format is functional, cell-based.
Another test deals with K562. As to the kind of experiment: Cytotoxicity against human K562 cells after 24 hrs by MTT assay. The format is functional, cell-based. To be noted: K562, 24 h.
Test [20] deals with MDA-MB-231. The test can be described thus: Cytotoxicity against human MDA-MB-231 cells after 24 hrs by MTT assay. The format is functional, cell-based. As to conditions: MDA-MB-231, 24 h.
In test [21] the test system is SK-N-MC. The test can be described thus: Cytotoxicity against human SK-N-MC cells after 24 hrs by MTT assay. It counts as functional, cell-based.

Take `CC1Oc2ccccc2/C(=N/Nc2ccccc2)C1n1ccnc1` (stereo not drawn): the MIC against Candida albicans [1], against Saccharomyces cerevisiae [2], with Aspergillus niger [3] and against Nannizzia gypsea [4] was 8 µg/mL (≈ 25.1 µM) in each case.

On to `Clc1ccc(CO/N=C2\c3ccccc3OCC2n2cncn2)cc1Cl.O=[N+]([O-])O` (stereo not drawn), for which the MIC with Aspergillus niger [5] and in the test with Nannizzia gypsea [6] was 1 µg/mL in each case. Moreover, the Ratio in the test on Aspergillus niger [7] and in the test on Nannizzia gypsea [8] was 16 each time.

`COc1cc(C2CC(=O)c3c(cc(O)c(C/C=C(\C)CCC=C(C)C)c3O)O2)cc(OC)c1O` (stereo not drawn) showed an MIC in the test on Staphylococcus aureus [9] of 4 µg/mL (≈ 8.54 µM).

Turning to `Nc1oc2ccccc2c(=O)c1/C=C1\COc2ccccc2C1=O`, 0.27 µM corresponded to half-maximal inhibition on Acetylcholinesterase (IC50).

Turning to `C[C@@H]1Oc2cc(Cl)ccc2/C(=N\OCc2ccccc2)[C@H]1n1ccnc1.O=[N+]([O-])O`, the MIC was found to be 0.25 µg/mL in the test on Candida albicans [10], 1 µg/mL with Nannizzia gypsea [6] and 0.5 µg/mL in the test on Saccharomyces cerevisiae [11]. In addition, the Ratio with Candida albicans [12] and with Saccharomyces cerevisiae [13] was 32 each time.

For `O=C1/C(=C/c2ccccc2)COc2cc3c(cc21)OCO3`, the IC50 in the test with MCF7, with T47D and with MDA-MB-231 [14] was no more than 9.3 µg/mL in each case.

`C=C(C)C(C)c1cc(C2CC(=O)c3c(O)cc(O)cc3O2)cc(OC)c1O` (stereo not drawn) had an MIC against Staphylococcus aureus [15] of 16 µg/mL (≈ 43.2 µM).

Regarding `Clc1ccc(CO/N=C2\c3ccccc3OCC2n2ccnc2)cc1Cl.O=[N+]([O-])O` (stereo not drawn), the MIC in the test on Candida albicans [10] and against Aspergillus niger [5] was no more than 1 µg/mL each time.

Regarding `COc1ccccc1/C=C1\COc2ccccc2C1=O`, the IC50 in the test with HUVEC amounted to 19 µM.

With `C[C@@H]1Oc2ccccc2/C(=N\OCc2ccc(F)cc2)[C@H]1n1ccnc1.O=[N+]([O-])O`, in the test with Nannizzia gypsea [6], the MIC was found to be 1 µg/mL.

The compound `C=C(C)C(C)c1cc(C2CC(=O)c3c(O)cc(O)cc3O2)c(OC)cc1O` (stereo not drawn) gave an MIC against Staphylococcus aureus [15] of 16 µg/mL (≈ 43.2 µM).

In the case of `COc1ccc(CC2COc3c(ccc4c3OCO4)C2=O)cc1` (stereo not drawn), the MIC is 16 µg/mL (≈ 51.2 µM) in the test on Mycolicibacterium phlei, 32 µg/mL (≈ 102 µM) against Mycolicibacterium aurum, 128 µg/mL (≈ 410 µM) in test [16] and 256 µg/mL (≈ 820 µM) in test [17].

`O=[N+]([O-])O.c1ccc(CO/N=C2/c3ccccc3OCC2n2ccnc2)cc1` (stereo not drawn) came in with an MIC in the test with Nannizzia gypsea [6] of 2 µg/mL.

Take `COc1ccc2c(c1)OC/C(=C\c1cc(Cl)c(OC)c(OC)c1)C2=O`: the IC50 with MDA-MB-231 [18], with KB and with SK-N-MC [19] was 7.56 µg/mL (≈ 21 µM) in each case.

Regarding `COc1cc(/C=C2\COc3cc(O)ccc3C2=O)cc(Br)c1O`, the half-maximal inhibitory concentration (IC50) in the test with K562, in the test with MDA-MB-231 [20] and with SK-N-MC [21] was no more than 3.86 µg/mL in each case.

Regarding `Clc1ccc(CO/N=C2\c3ccc(Cl)cc3OCC2n2cncn2)c(Cl)c1` (stereo not drawn), in the test on Saccharomyces cerevisiae [11], the MIC came to 4 µg/mL (≈ 9.44 µM).

In the test with Staphylococcus aureus [9], `CC(C)=CCC/C(C)=C/Cc1c(C2CC(=O)c3c(O)cc(O)cc3O2)ccc(O)c1O` (stereo not drawn) showed an MIC of 16 µg/mL (≈ 37.7 µM).

Turning to `O=[N+]([O-])O.c1ccc(CO/N=C2\c3ccccc3OCC2n2ccnc2)cc1` (stereo not drawn), inhibition of growth with Nannizzia gypsea [6] (MIC) required 2 µg/mL.

The record behind these values is ChEMBL document CHEMBL3414547, “Recent advances of chroman-4-one derivatives: synthetic approaches and bioactivities” (Eur J Med Chem, 2015).
